Assay results reported in patent US9365621B2, “Method for preventing neoplastic transformation by inhibition of retinoblastoma protein inactivation” (The Regents of the University of California, priority 2012, dated 2016).
No end group written: not given here.

Molecular target: T1, human Rb construct (residues 53-787) binding Human E2F1 transactivation domain (Homo sapiens, UniProt P06400, DEL245-267/DEL582-642/S780A)
T1 construct: a human Rb construct (residues 53-787, delta245-267, delta582-642, S780A); made in house; host or cells: E. coli
T1 sequence (P06400 with tags, fused parts or gaps DEL245-267/DEL582-642/S780A): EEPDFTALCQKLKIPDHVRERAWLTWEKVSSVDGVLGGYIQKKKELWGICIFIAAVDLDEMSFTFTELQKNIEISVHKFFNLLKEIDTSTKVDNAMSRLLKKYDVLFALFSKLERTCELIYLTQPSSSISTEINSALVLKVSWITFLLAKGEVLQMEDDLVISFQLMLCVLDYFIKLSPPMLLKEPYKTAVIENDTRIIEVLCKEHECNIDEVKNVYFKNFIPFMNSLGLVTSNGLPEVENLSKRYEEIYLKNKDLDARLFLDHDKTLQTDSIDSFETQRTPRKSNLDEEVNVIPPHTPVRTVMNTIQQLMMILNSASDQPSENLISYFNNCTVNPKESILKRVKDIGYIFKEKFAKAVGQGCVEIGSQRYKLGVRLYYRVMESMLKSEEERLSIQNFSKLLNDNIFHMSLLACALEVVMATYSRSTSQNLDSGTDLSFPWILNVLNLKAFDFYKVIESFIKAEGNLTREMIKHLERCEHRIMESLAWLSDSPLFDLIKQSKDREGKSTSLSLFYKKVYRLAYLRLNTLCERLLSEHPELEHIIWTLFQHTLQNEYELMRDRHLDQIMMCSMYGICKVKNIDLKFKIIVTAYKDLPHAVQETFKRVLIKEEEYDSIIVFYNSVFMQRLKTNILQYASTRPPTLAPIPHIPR
Assay: Isothermal titration calorimetry of E2F binding to Rb (Rb activity)
Conditions: in vitro, phosphorylated Rb
Excerpt: The inventors have developed an assay for measuring the degree of binding between Rb and E2F. Rb inactivation corresponds to E2F binding inhibition. If you can prevent E2F binding to Rb, then you inactivate Rb, its tumor suppressing action decreases and the cell cycle continues from G1 to S and unregulated cell division occurs. Inactivation occurs upon Rb phosphorylation by Cdk. The inventors have discovered that in the presence of ‘LxCxE’ peptide, E2F inhibition is prevented upon phosphorylation.
The […] peptide was made synthetically using standard peptide synthesis. Human E2F1 transactivation domain (residues […]) and a human Rb construct (residues 53-787, delta245-267, delta582-642, S780A) were produced recombinantly in E. coli and purified to homogeneity. Rb was phosphorylated with recombinant Cdk as described.
Rb activity, defined as its ability to bind E2F, was assayed by isothermal titration calorimetry to measure quantitatively E2F binding affinity. About 50 micromolar (μm) Rb was used in the calorimetry cell and E2F was titrated in at a concentration of ˜1 mM. Standard protocols were used to determine Kd. In the experiment with the […] peptide, the peptide was first added to the cell before E2F to saturate Rb.

## DLYCYEQLN [DLYCYEQLN peptide, DLYCYEQLN]
  inhibition of Rb inactivation (effect of phosphorylation on E2F-Rb binding): inhibits the weakening effect of phosphorylation on E2F-Rb binding
